Test results from patent publication US20050145258A1, “Composition, Method and Device for Blood Supply Fluctuation Therapy” (priority 2004, published 2005).

Experiments:
liver cancer = format: in vivo, human
Experimental: The inlet tube member 2 was connected to gas resource of gaseous CO2. 500 ml of the gaseous CO2 was introduced into storing bag for cleaning the air within the storing bag and delivery system. T Stopcock 1 in inlet tube member 2 was turned off to stop the gas into storing bag temporally. The gaseous CO2 in storing bag 3 was aspirated into syringe 6, then impelled by the syringe 6. Due to the function of check valve, during the aspirating of syringe, the first check valve 5 was open; meanwhile the second and third check valves were closed automatically. The gas in the storing bag was aspirated into syringe 6. During the impelling of syringe, the first check valve was closed and the second and third check valves were open automatically. The gaseous CO2 in the syringe is impelled out of the delivery device through the outlet of the third three-way stopcock. Repeating syringe aspirating and impelling until all gas in the storing bag was emptied, and the air within storing bag and delivery device was cleaned. After that, the stopcock on the inlet tubular member was turned on again to introduce the gaseous CO2 from the gas resource into storing bag 3 to fill the storing bag (2000 ml), then the stopcock 1 was turned off to stop gaseous CO2 introduction. The gaseous CO2 and delivery system was ready for use. […] The delivery catheter 13 was connected to the outlet of the third three-way stopcock of the delivery system, and the air within the catheter 13 was removed. Using the gaseous CO2 as contrast medium, 50 ml gaseous CO2 at rate of 10 ml/second was injected by syringe 6 into the hepatic artery to perform a diagnostic DSA. The diagnostic DSA was used to identify the location, size of tumor, arteries supplying blood to liver cancer, blood flow within tumor tissue and time gaseous CO2 staying in tumor vessels. All those information was necessary to doctor to select an optimal protocol of Blood Supply Fluctuation Therapy (BSFT). Then, the angiographic catheter was advanced into the artery supplying blood flow to the liver cancer. […] Blood Supply Fluctuation Therapy (BSFT) with Gaseous CO2: gaseous CO2 was injected slowly by the delivery syringe 6 through the catheter 13 into the tumor vasculature. […] The gas displaces the blood flow within the tumor vessels partially or entirely depending on the injection rate and lasting time. With increasing of the gaseous mixture, the blood supply to the liver cancer was decreased, even stopped. Because tumor vasculature was immature, “vapor lock” in tumor vasculature was produced by the gaseous CO2. With decreasing and stopping of the blood flow of tumor vasculature, the gaseous CO2 injected through delivery catheter might overflow into the arteries supplying normal liver tissue that could be detected and monitored by X-ray fluoroscopy, DSA, CT or ultrasound imaging. Because the gaseous CO2 was absorbable in blood and could be flushed away in normal vasculature within one minute, therefore the gaseous CO2 overflowing into normal vasculature caused no damage in normal liver tissue. At this time, gaseous CO2 delivery was stopped. Due to vapor lock, there was no blood flow in tumor vasculature and no nutrition and oxygen was delivery to tumor cells, which made it under starvation and hypoxia. Meanwhile also due to the vapor lock, area of the CO2 bubbles contacting with blood was getting much smaller, which limits CO2 absorbability and prolongs CO2 gas staying within tumor vasculature. […] Under X-ray fluoroscopy, the tumor looked like a balloon filled with gas (FIG. 9). Thirty minutes after injection of CO2 about half of the gas still remained in the tumor (FIG. 10).

uterine fibroids = test: Blood supply fluctuation therapy with gaseous mixture of CO2 and nitric oxide in patients with uterine fibroids; format: in vivo, human
Excerpt: Preparation of gaseous mixture of CO2 and Nitric Oxide: the preparation procedure was same as that of gaseous CO2 in example 1, except the gaseous material was not CO2, but the gaseous mixture of CO2 and Nitric Oxide (NO). The concentration of NO was present in an amount effective to prevent vasospasm and ischemia, 40 ppm here.
Selective catheterization and diagnostic Digital Subtraction Angiogrpahy (DSA) with Gaseous Mixture of CO2 and Nitric Oxide (NO): under monitoring of X-ray fluoroscope and using interventional technique of selective catheterization, a delivery catheter was inserted into the internal iliac artery in the patients with uterine fibroids. […]
Blood Supply Fluctuation Therapy (BSFT) with Gaseous Mixture of CO2 and Nitric Oxide (NO): gaseous mixture of CO2 and Nitric Oxide (NO) was injected slowly and intermittently by the delivery syringe through the delivery catheter into tumor vasculature at the rate of 1 ml/s and with 5 minutes interval each 20 ml injection. […] With the decreasing and stopping of the blood flow of tumor vasculature, the gaseous mixture injected through delivery catheter might overflows into the arteries supplying normal uterine wall that could be detected and monitored by X-ray fluoroscopy, DSA, CT or ultrasound imaging. […]

CO2 bubbles in immature tumor vasculature, DSA imaging (liver cancer; human, in vivo): filled and accumulated
CO2 bubbles in normal liver tissue, DSA imaging (liver cancer; human, in vivo): no bubbles accumulated
discomfort felt by patients receiving the injection (liver cancer; human, in vivo): minor discomfort on liver area
time CO2 accumulates and stays in abnormal vasculature (liver cancer; human, in vivo): for hours, even for days
time to be flushed away in normal vasculature (liver cancer; human, in vivo): one
gas seen in normal uterine tissue, CT scan (uterine fibroids; human, in vivo): No gas
Compound: O=C=O [CO2, carbon dioxide]
damage in normal liver tissue (liver cancer; human, in vivo): no damage
vapor lock in tumor vasculature (liver cancer; repeated 50 ml injections through catheter): produced
filling of liver tumor with CO2, X-ray (liver cancer; tumor 7 cm in diameter, total of 500 ml CO2, 3-5 ml/s, 3-5 minutes interval each 50 ml injection): fully filled
vapor lock in tumor vasculature, CT scan (uterine fibroids; 45 minutes after BSFT): produced
